Usually Dmax stands for the greatest extent of degradation seen. In general, DC50 refers to the concentration giving 50% degradation.

Drawing on US20250114356A1, “INDAZOLE BASED COMPOUNDS AND ASSOCIATED METHODS OF USE” (Arvinas Operations, Inc., priority 2020, published 2025), this text covers Dmax and DC50 for 7 compounds.

Assay type in all cases: cell-based
The target in one assay is T1, wildtype LRRK2 (Homo sapiens, UniProt Q5S007).
T1 construct: expressed in transfected cells; host or cells: HEK293 (ATCC CRL-1573), transient transfection, ubiquitin promoter
T1 sequence (Q5S007 whole entry): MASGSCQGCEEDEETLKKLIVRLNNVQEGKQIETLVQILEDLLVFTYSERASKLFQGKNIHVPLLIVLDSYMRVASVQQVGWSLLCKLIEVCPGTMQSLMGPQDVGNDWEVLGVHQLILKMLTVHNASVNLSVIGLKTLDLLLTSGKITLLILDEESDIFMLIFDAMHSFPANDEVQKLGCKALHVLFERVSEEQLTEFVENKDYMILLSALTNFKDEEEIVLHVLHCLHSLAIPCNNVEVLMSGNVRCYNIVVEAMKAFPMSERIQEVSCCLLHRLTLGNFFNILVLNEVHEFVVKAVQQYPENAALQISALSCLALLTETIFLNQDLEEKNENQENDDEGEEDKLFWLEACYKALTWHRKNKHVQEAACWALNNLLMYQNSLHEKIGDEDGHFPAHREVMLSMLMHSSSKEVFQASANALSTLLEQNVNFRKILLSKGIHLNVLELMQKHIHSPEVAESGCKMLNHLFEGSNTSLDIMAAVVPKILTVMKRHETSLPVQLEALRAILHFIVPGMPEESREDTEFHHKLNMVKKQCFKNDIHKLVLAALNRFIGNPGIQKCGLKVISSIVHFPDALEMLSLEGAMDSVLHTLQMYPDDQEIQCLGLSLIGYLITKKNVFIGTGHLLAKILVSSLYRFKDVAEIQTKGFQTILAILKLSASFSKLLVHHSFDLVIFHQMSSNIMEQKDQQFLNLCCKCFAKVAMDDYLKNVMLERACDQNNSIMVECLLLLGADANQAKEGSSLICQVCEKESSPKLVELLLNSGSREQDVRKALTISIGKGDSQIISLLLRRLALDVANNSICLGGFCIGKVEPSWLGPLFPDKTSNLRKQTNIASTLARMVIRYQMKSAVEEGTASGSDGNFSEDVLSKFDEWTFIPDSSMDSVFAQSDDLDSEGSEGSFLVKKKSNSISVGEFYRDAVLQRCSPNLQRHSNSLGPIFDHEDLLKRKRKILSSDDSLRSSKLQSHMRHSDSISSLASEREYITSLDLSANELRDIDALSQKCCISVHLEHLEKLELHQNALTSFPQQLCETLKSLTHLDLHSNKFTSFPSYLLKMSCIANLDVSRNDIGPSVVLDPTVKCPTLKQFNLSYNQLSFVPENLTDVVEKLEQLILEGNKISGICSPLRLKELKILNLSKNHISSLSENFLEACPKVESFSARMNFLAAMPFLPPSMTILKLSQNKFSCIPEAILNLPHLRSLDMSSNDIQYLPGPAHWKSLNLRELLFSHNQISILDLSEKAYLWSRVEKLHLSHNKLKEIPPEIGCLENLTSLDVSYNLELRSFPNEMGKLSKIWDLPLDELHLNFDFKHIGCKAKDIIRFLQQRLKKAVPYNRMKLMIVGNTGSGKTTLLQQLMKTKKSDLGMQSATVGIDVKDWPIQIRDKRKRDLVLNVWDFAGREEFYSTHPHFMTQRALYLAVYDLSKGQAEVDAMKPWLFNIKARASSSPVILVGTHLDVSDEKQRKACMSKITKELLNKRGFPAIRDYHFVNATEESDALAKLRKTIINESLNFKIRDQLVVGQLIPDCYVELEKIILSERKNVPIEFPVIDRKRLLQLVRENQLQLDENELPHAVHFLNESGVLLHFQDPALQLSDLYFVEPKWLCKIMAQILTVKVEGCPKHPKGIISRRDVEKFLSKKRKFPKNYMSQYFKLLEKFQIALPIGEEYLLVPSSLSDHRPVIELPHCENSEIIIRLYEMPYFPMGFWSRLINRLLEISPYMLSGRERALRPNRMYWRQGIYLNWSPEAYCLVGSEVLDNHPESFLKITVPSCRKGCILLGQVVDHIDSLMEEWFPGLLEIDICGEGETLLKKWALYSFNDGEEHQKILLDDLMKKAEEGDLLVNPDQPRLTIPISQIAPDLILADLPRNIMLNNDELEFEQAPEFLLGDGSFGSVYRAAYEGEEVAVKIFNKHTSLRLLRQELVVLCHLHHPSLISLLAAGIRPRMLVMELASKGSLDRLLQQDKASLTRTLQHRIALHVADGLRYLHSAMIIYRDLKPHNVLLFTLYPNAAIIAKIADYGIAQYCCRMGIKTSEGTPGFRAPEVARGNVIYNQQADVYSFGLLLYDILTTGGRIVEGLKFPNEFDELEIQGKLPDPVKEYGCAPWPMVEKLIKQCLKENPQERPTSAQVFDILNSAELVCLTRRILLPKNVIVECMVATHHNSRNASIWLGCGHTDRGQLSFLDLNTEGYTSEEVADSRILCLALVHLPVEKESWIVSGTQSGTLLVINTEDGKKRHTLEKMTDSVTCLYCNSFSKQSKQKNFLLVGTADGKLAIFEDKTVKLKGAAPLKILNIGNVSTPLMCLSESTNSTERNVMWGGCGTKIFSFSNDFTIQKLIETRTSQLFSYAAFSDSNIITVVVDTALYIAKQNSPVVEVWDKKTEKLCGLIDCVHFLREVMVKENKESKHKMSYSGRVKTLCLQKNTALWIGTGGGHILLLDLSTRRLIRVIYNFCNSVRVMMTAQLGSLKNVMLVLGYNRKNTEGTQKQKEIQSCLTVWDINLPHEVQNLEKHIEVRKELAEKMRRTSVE
Briefly: LRRK2 degradation assay, wildtype LRRK2-HiBit expressed from plasmid in HEK293 cells. The settings on record: HEK293 cells transfected with HiBit-tagged wildtype LRRK2, 24 hours compound incubation; for Dmax: read-out: **WT Dmax (%); for DC50: read-out: *WT DC50. The method, boiled down: (§1)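 HEK293 cells co-transfected with ubiquitin-promoter C-terminal HiBit-tagged wild-type or G2019S LRRK2 plus firefly luciferase, then treated with compound dose-responses for 24 hours at 37° C. HiBit/firefly luciferase ratio (dual Nano-Glo read) normalized to % DMSO median; DC50 and Dmax fitted per plate, 6 replicates over two days.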
(With HiBiT, luminescence reflects the tagged protein that the partner subunit can reach.)

Assay [1] addresses T2, LRRK2 (endogenous gene tagged with a HiBit sequence) (Homo sapiens, UniProt Q5S007).
T2 construct: endogenous in cells; host or cells: HEK293 with a HiBit knock-in at the endogenous LRRK2 locus, stably expressing firefly luciferase
The assay can be described thus: LRRK2 degradation assay, endogenous LRRK2 gene tagged with HiBit in HEK293 cells. The note with it: 24 hours compound incubation; for Dmax: read-out: **Endogenous WT Dmax (%); for DC50: read-out: *Endogenous WT DC50. As for the experimental part: The assay measures the degradation of LRRK2 in cells where the C-terminus (3′) of the endogenous gene has been tagged with a HiBit sequence in HEK293 cells. The cells also express firefly lucisferase, expressed from a Cytomegalovirus promoter and introduced into the HiBit tagged cells and stably expressed. The Nano-Glo® Dual Luciferase Reporter Assay System (Promega™, Madison, WI) was utilized.
Day 1—Preparation of Compound and Assay Plates. Two sets of plates were prepared: a triplicate set for the HiBit assay in white 384-well plates and a triplicate set of plate in black 384-well plates for the Alamar Blue cell viability assay. Briefly, the growth media (DMEM+Glutamax-10% fetal bovine serum-1% Penicillin-Streptomicin) from two T128 flasks was aspirated from the flasks. Cells were washed with Dulbecco's Phosphate Buffered Saline (dPBS) and aspirated. Trypsin (3 mL per flask) was added and the flasks were incubated for 2-3 minutes.
Ten mL of OptiMEM-10% fetal bovine-1% penicillin-streptomycin (hereinafter, “OptiMEM media”) was added to the flask and the cells and transferred to a 50 mL conical tube. A cell count (25 ul of cell into Effendorf vial+25 ul of Trypan Blue Stain) was performed and the cell density adjusted to 15,000 cell/45 μl/well (3.33×10^5/mL) in OptiMEM media.
Forty-five microliters of the cell suspension (15,000 cells) was aliquoted to each well of the white 384-well plate. The plates incubated at room temperature for 10 minutes before being placed in the 37° C.+5% CO2 incubator overnight
Day 2—Compound Treatment. Exemplary compounds were prepared at a 1 mM starting concentration and 1:3 serial dilution for 11 points CRC prepared and stored in the freezer. The Master Compound Plate was thawed overnight at room temperature. DMSO (20 μL) was added into column 24 of the Master Compound Plate for negative control and 20 μL of 300 μM of Exemplary Compound 4 in column 23 as positive control.
Intermediate Compound Plate with 4% DMSO in OptiMEM Media. DMSO was added to warm OptiMEM media to achieve a 4% DMSO solution (approximately 50 mL/plate). One-hundred microliters of the OptiMEM-4% DMSO was aliquoted to each well of 384-Well Deep Well Microplates.
The Master Compound Plate and the Intermediate Compound Plate were spun down.
One microliter of compound from the Master Compound Plate was transferred into the Intermediate plate (a 1:100 dilution). […]
Day 3—HiBit Assay. […] Fluorescence of each plate was read on a plated reader for the Alamar Blue viability assay. […]
The One Glo luciferase mixture was prepared. […] The luminescence of each plate was read on a plate reader.
1:100 DLR substrate and 1:100 LgBiT Protein dilution were added to the Promega Stop and Glo buffer and mixed just before addition to assay plates. […] The luminescence of each plate was read on a plate reader. […]

Another assay deals with T3, G2019S LRRK2 (Homo sapiens, UniProt Q5S007, G2019S).
T3 construct: expressed in transfected cells; host or cells: HEK293 (ATCC CRL-1573), transient transfection, ubiquitin promoter
T3 sequence (Q5S007 whole entry G2019S): as the sequence (Q5S007 whole entry) above, with G2019S counted along it
Briefly: LRRK2 degradation assay, G2019S LRRK2-HiBit expressed from plasmid in HEK293 cells. The note with it: HEK293 cells transfected with HiBit-tagged G2019S LRRK2, 24 hours compound incubation. The method, boiled down: as §1

T2 sequence (Q5S007 whole entry): as the sequence (Q5S007 whole entry) above

Consider `C[C@H]1CN(c2cc(-c3n[nH]c4ccc(OC5(C)CC5)cc34)ncn2)CCN1CCOCCOCCOCCOc1ccc2c(c1)C(=O)N(C1CCC(=O)NC1=O)C2=O` (stereo partly drawn) [compound 4, 2-(2,6-dioxopiperidin-3-yl)-5-{2-[2-(2-{2-[(2S)-2-methyl-4-{6-[5-(1-methylcyclopropoxy)-1H-indazol-3-yl]pyrimidin-4-yl}piperazin-1-yl]ethoxy}ethoxy)ethoxy]ethoxy}-2,3-dihydro-1H-isoindole-1,3-dione], for which the Dmax (at wildtype LRRK2; in assay [1]; on G2019S LRRK2) was 50 to 70% throughout. Besides, the DC50 at wildtype LRRK2 was under 10 nM; in assay [1] it was under 10 nM; on G2019S LRRK2 it was 10 to 50 nM.
`C[C@H]1CN(c2cc(-c3n[nH]c4ccc(OC5(C)CC5)cc34)ncn2)CCN1CC1CCN(CC2CCN(c3ccc4c(c3)C(=O)N(C3CCC(=O)NC3=O)C4=O)CC2)CC1` (stereo partly drawn) [compound 24, 2-(2,6-dioxopiperidin-3-yl)-5-{4-[(4-{[(2S)-2-methyl-4-{6-[5-(1-methylcyclopropoxy)-1H-indazol-3-yl]pyrimidin-4-yl}piperazin-1-yl]methyl}piperidin-1-yl)methyl]piperidin-1-yl}-2,3-dihydro-1H-isoindole-1,3-dione]: the Dmax at wildtype LRRK2 is 50 to 70%; in assay [1], 50 to 70%; at G2019S LRRK2, at least 70%. In addition, the 50% degradation concentration (DC50) (at wildtype LRRK2; in assay [1]; at G2019S LRRK2) was under 10 nM each time.
On to `CC(C)Oc1ccc2[nH]nc(-c3cc(N4CCO[C@@H](CN5CCN(CC6CCN(c7ccc8c(c7)C(=O)N(C7CCC(=O)NC7=O)C8=O)CC6)CC5)C4)ncn3)c2c1` (stereo partly drawn) [compound 47, 2-(2,6-dioxopiperidin-3-yl)-5-(4-((4-(((S)-4-(6-(5-isopropoxy-1H-indazol-3-yl)pyrimidin-4-yl)morpholin-2-yl)methyl)piperazin-1-yl)methyl)piperidin-1-yl)isoindoline-1,3-dione], for which, on wildtype LRRK2, the Dmax lay within 50 to 70% and the DC50 was under 10 nM. At G2019S LRRK2, the DC50 lay in the range of 10 to 50 nM and the Dmax is 50 to 70%.
As to `CC(C)Oc1ccc2[nH]nc(-c3cc(N4CCO[C@H](CN5CCN(CC6CCN(c7ccc8c(c7)C(=O)N(C7CCC(=O)NC7=O)C8=O)CC6)CC5)C4)ncn3)c2c1` (stereo partly drawn) [compound 48, 2-(2,6-dioxopiperidin-3-yl)-5-(4-((4-(((R)-4-(6-(5-isopropoxy-1H-indazol-3-yl)pyrimidin-4-yl)morpholin-2-yl)methyl)piperazin-1-yl)methyl)piperidin-1-yl)isoindoline-1,3-dione], the Dmax on wildtype LRRK2 and at G2019S LRRK2 was 50 to 70% in each case. Also, the DC50 at wildtype LRRK2 and at G2019S LRRK2 was under 10 nM each time.
For `CC(C)Oc1ccc2[nH]nc(-c3cc(N4CCO[C@@H](CCN5CCN(CC6CCN(c7ccc8c(c7)C(=O)N(C7CCC(=O)NC7=O)C8=O)CC6)CC5)C4)ncn3)c2c1` (stereo partly drawn) [compound 49, 2-(2,6-dioxopiperidin-3-yl)-5-(4-((4-(2-((S)-4-(6-(5-isopropoxy-1H-indazol-3-yl)pyrimidin-4-yl)morpholin-2-yl)ethyl)piperazin-1-yl)methyl)piperidin-1-yl)isoindoline-1,3-dione], on wildtype LRRK2, the Dmax is at least 70% and the DC50 was under 10 nM. On G2019S LRRK2, this compound registered a DC50 of under 10 nM and a Dmax of 50 to 70%.
`CC(C)Oc1ccc2[nH]nc(-c3cc(N4CCO[C@H](CCN5CCN(CC6CCN(c7ccc8c(c7)C(=O)N(C7CCC(=O)NC7=O)C8=O)CC6)CC5)C4)ncn3)c2c1` (stereo partly drawn) [compound 50, 2-(2,6-dioxopiperidin-3-yl)-5-(4-((4-(2-((R)-4-(6-(5-isopropoxy-1H-indazol-3-yl)pyrimidin-4-yl)morpholin-2-yl)ethyl)piperazin-1-yl)methyl)piperidin-1-yl)isoindoline-1,3-dione]: at wildtype LRRK2, the Dmax is at least 70% and the DC50 is under 10 nM. On G2019S LRRK2, this compound gave a DC50 of under 10 nM and a Dmax of at least 70%.
As to `CC(C)Oc1ccc2[nH]nc(-c3cc(N4CCN(CCN5CCC(CC6CCN(c7ccc8c(c7)C(=O)N(C7CCC(=O)NC7=O)C8=O)CC6)CC5)CC4)ncn3)c2c1` (centres unmarked) [compound 51, 2-(2,6-dioxopiperidin-3-yl)-5-(4-((1-(2-(4-(6-(5-isopropoxy-1H-indazol-3-yl)pyrimidin-4-yl)piperazin-1-yl)ethyl)piperidin-4-yl)methyl)piperidin-1-yl)isoindoline-1,3-dione], at wildtype LRRK2, the Dmax was 50 to 70% and the DC50 fell in the range of 10 to 50 nM. In addition, on G2019S LRRK2, the DC50 fell in the range of 10 to 50 nM and the Dmax is 50 to 70%.
